Reference: patent publication US6632794B1, “Insulin-like growth factor agonist molecules” (Genentech, Inc., priority 1997, dated 2003)
Positions of bridges follow the written chain, without caps; N, C: chain ends. Residues, ends and D or L forms follow the SMILES beside them. No end group written: not given here.

Experiments:
IGFBP-3 [1] = target: T1, IGFBP-3 (Homo sapiens, UniProt P17936); experiment: KIRA assay of IGF-I activity with IGF-I plus IGFBP-3 and peptide; format: cell-based
Protocol: (§1) C. In Vitro Activation (KIRA)
(§2) The ability of several synthetic peptides to block IGF-I binding to IGFBPs and release functional IGF-I was tested in a KIRA assay of IGF-I activity, as described in Example 1. Cells were treated with IGF-I alone, peptide alone, peptide plus IGF-I, IGF-I plus binding protein (IGFBP-1 or IGFBP-3), or IGF-I plus binding protein (IGFBP-1 or IGFBP-3) and peptide.
It is believed that this would drop to 30 uM with a 1:1 ratio.

[2] = target: T2, recombinant human (rh) IGFBP-1 (Homo sapiens, UniProt P08833); experiment: ^125I-IGF-I competitive binding plate assay, IGFBP-1; conditions: FIG. 36
T2 sequence (P08833 26-259): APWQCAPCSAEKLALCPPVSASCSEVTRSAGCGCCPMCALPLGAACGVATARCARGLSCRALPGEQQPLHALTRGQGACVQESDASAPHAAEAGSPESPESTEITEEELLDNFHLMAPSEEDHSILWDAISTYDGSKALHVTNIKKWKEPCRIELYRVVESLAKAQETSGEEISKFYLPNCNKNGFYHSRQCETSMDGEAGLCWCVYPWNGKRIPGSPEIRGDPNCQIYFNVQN
Protocol: (§3) The mutant (Leu^24,Ala^31)hIGF-I was also tested for its ability to displace radio-labeled rhIGF-I off the IGFBPs in a competitive binding assay. This assay involves coating recombinant human (rh) IGFBP-1 or rhIGFBP-3 (160 ng/ml) onto 96-well plates overnight, blocking the plates for one hour with 0.5% BSA, adding rhIGF-I (250-0.08 ng/ml) or (Leu^24,Ala^31)hIGF-I for 1 hour, then adding 20,000 cpm of ^125I-IGF-I and incubating for 2 hours before washing and counting.
(§4) As an additional assay of peptide activity, several peptides were tested in an assay using ^125I-labeled IGF-I to measure inhibition of IGFBP binding, as described in Example 1 (Assay 3). Serial dilutions of peptide were added to an IGFBP-1 or an IGFBP-3 plate. Thereafter, ^125I-labeled IGF-I was added and the plates were incubated for 2 hours. The plates were then washed and counted to determine the amount of bound IGF-I.

IGFBP-1 [3] = target: T3, IGFBP-1 (Homo sapiens, UniProt P08833); experiment: KIRA assay of IGF-I activity with IGF-I plus IGFBP-1 and peptide; format: cell-based; conditions: FIG. 37B
T3 construct: biotin (chemical label, EZ-LINK NHS-SS-Biotin)
T3 sequence (P08833 26-259): T2 sequence (P08833 26-259)
Protocol: as §1, §2

IGFBP-3 [4] = target: T1, IGFBP-3; experiment: BIAcore competition assay, IGFBP-3 binding to immobilized IGF-II; conditions: 20 nM IGFBP-3; approximately 1500 RU immobilized IGF-II; read-out: IC50, inhibition of IGFBP-3 binding to IGF-II (BIAcore)
Protocol: D. BIAcore™ Competition Assay (for IGFBP-3 Binders)
IGF-II was immobilized on a dextran chip for inhibition assays using a BIAcore™ 2000 surface-plasmon-resonance device (BIAcore, Inc., Piscataway, N.J.) to measure free binding protein. IGF-II was biotinylated as described above, and injected over a chip to which streptavidin had been coupled (BIAcore, Inc.) to give approximately 1500 RU of immobilized IGF-II. […] Serial dilutions of peptide were mixed with a constant concentration (20 nM) of IGFBP-3. After incubation for ≧1 hour at room temperature, an aliquot of 20 μl was injected at a flow rate of 20 μl/min over the IGF-II chip. Following the injection, a response reading was taken to measure the relative amount of IGFBP-3 bound to the IGF-II.

IGFBP-3 [5] = target: T1, IGFBP-3; experiment: ^125I-IGF-I competitive binding plate assay, IGFBP-3; conditions: FIG. 35
Protocol: as §3, §4

IGFBP-1 [6] = target: T3, IGFBP-1; experiment: Biotin-BP plate (ELISA) assay, biotinylated IGFBP-1 binding to IGF-I; conditions: FIG. 33
Protocol: 1. Biotin-BP Assay (for IGFBP-1 Binders)
For inhibition of IGFBP-1 binding, IGFBP-1 (as well as IGFBP-3 as a control) were biotinylated as described above. MAXISORP™plates were coated and blocked as described above, using 2 μg/mL IGF-I. In a separate plate, serial dilutions of peptide were premixed with a constant concentration (20 nM) of biotinylated IGFBP-1. After 20 min. at room temperature, the mixture was added to the IGF-I plate. The peptide/IGFBP mix was then removed and the plate was washed ten times with PBS buffer containing 0.05% TWEEN-20™ surfactant. Bound biotin-IGFBP-1 was then detected using streptavidin-conjugated horse radish peroxidase, and a chromogenic substrate.
A second series of peptides made use of non-natural amino acids to probe whether other structural features such as an added methyl group at the alpha carbon, or an isomer (D-alanine) could affect peptide binding to IGFBP-1.
(§5) Substitutions at the N-terminus or C-terminus yielded affinity improvements. […] All of these peptides had similar or improved apparent affinity for IGFBP-1 as compared with bp1-01 and bp1-02 and are thus expected to increase the availability of IGF-I in an in vitro cell culture assay.

IGFBP-3 [7] = target: T1, IGFBP-3; experiment: BIAcore competition assay, IGFBP-3 binding to immobilized IGF-I; conditions: for IGF-I Inhibition IC50 (mut)/IC50 (wt): bp3-01-ox variants by BIAcore, wt = bp3-01-ox
Protocol: A. BIAcore™ Competition Assay (for IGFBP-3 Binders)
IGF-I was immobilized on a dextran chip for inhibition assays using a BIAcore™ 2000 surface-plasmon-resonance device (BIAcore, Inc., Piscataway, N.J.) to measure free binding protein. […] Serial dilutions of peptide were mixed with a constant concentration (40 nM) of IGFBP-3. After incubation for >1 hour at room temperature, an aliquot of 20 μL was injected at a flow rate of 20 μL/min over the IGF-I chip. Following the injection, a response reading was taken to measure the relative amount of IGFBP-3 bound to the IGF-I.

[8] = test system: endogenous IGFBPs present in human serum; experiment: Displacement of ^125I-IGF-I from IGFBPs in human serum (FPLC-SEC); format: binding; conditions: human serum; peptide at 0.2 mM
Protocol: To determine if the IGF mutant could displace IGF-I from endogenous IGFBPs present in human serum, the following experiment was performed. Radiolabeled rhIGF-I (^125-IGF-I) was incubated with normal human serum samples at a concentration of 33 ng/ml for 16 hr at 4° C. to allow for the formation of […] complexes. […] The samples (n=3) were then analyzed by FPLC size-exclusion chromatography (FPLC-SEC) to determine the relative size and amounts of the ^125I-IGF-I:IGFBP complexes.
Data are expressed as cpm per fraction (n=1).
This Example tests an IGFBP-3-specific peptide, BP15, for its ability to block the binding of ^125I-IGF-I in human serum. Human serum was incubated with ^125I-IGF-I±the peptide and the amount of tracer bound to IGFBPs via size-exclusion chromatography was measured.

IGFBP-1 [9] = target: T3, IGFBP-1; experiment: BIAcore competition assay, IGFBP-1 binding to IGF-I; conditions: IGFBP-1
Protocol: Two series of synthetic peptide variants were generated to determine which side chains of the bp1-01 peptide might contribute directly to binding IGFBP-1. In the first series an alanine-scanning approach (Cunningham and Wells, Science, 244: 1081-1085 (1989)) was used to remove that portion of each side chain beyond the beta carbon. The contribution of these atoms to the free energy of binding of the peptide to IGFBP-1 was then assessed by measuring the potency (IC50) of the variant for inhibiting IGFBP-1 binding to IGF-I or IGF-II in a BIAcore™competition assay, analogous to that described for IGFBP-3 (see Example 7).
as §5

[10] = 40 nM IGFBP-3, 400 to 800 RU immobilized IGF-I, read-out: BIAcore Assay IC50, inhibition of IGF-I binding to IGFBP-3

T1 sequence (P17936 28-291): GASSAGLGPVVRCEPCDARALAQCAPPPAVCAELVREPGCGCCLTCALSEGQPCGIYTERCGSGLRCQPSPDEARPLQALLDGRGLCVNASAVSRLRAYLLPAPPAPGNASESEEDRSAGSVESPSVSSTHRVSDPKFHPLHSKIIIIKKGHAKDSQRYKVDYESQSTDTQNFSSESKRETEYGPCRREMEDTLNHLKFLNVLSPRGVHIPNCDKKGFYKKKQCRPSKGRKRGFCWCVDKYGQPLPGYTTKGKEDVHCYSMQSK

IC50 (IGFBP-3 [7]; [10]) | Molecule | inhibition of ^125I-IGF-I binding to an IGFBP-1 coated plate [2] | IC50 (IGFBP-3 [4]) | inhibition of ^125I-IGF-I binding to an IGFBP-3 plate (IGFBP-3 [5]) | IGF-I Inhibition IC50 (mut)/IC50 (wt) (IGFBP-3 [7]) | other results
 | CSCC[C@H](NC(=O)[C@H](CC(N)=O)NC(=O)[C@@H]1CSSC[C@H](NC(=O)[C@@H](NC(=O)[C@H](CCC(=O)O)NC(=O)[C@H](CCC(=O)O)NC(=O)[C@@H](N)CO)C(C)C)C(=O)N[C@@H](Cc2c[nH]c3ccccc23)C(=O)N2CCC[C@H]2C(=O)N[C@@H](C(C)C)C(=O)N[C@@H](C)C(=O)N[C@@H](CCC(=O)O)C(=O)N[C@@H](Cc2c[nH]c3ccccc23)C(=O)N[C@@H](Cc2ccc(O)cc2)C(=O)N[C@@H](CC(C)C)C(=O)N1)C(=O)N[C@@H](Cc1c[nH]c2ccccc12)C(=O)NCC(=O)O [BP3-01-ox] (H-SEEVCWPVAEWYLCNMWG-OH; disulfide 5-14; N-terminus and C-terminus assumed) | did not inhibit | 0.92 µM | inhibition | 1 | effect on IGF-I activity in KIRA with IGF-I plus IGFBP-3 (IGFBP-3 [1]; FIG. 37D): no significant effect; effect on IGF-I activity in KIRA with IGF-I plus IGFBP-1 (IGFBP-1 [3]): no significant effect; inhibition of biotinylated IGFBP-1 binding to IGF-I plate (IGFBP-1 [6]): little or no inhibition
12 µM | CSCC[C@@H]1NC(=O)[C@H](Cc2c[nH]c3ccccc23)NC(=O)[C@@H]2CCCN2C(=O)CNC(=O)[C@H](CC(=O)O)NC(=O)[C@H](C)NC(=O)[C@@H](NC(=O)[C@@H](NC(=O)CNC(=O)[C@H](CCSC)NC(=O)[C@@H](N)CC(=O)O)C(C)C)CSSC[C@@H](C(=O)N[C@@H](CCC(=O)O)C(=O)N[C@@H](Cc2c[nH]c3ccccc23)C(=O)N[C@H](C(=O)N[C@@H](CCC(=O)O)C(=O)O)[C@@H](C)O)NC(=O)[C@H](C(C)C)NC(=O)[C@H](Cc2ccc(O)cc2)NC1=O [BP3-02-ox] (H-DMGVCADGPWMYVCEWTE-OH; disulfide 5-14; N-terminus and C-terminus assumed) | did not inhibit |  | inhibition |  | 
< 10 µM | CC[C@H](C)[C@@H]1NC(=O)[C@H](Cc2ccc(O)cc2)NC(=O)CNC(=O)[C@H](CCC(N)=O)NC(=O)[C@H](CC(=O)O)NC(=O)[C@H](Cc2c[nH]cn2)NC(=O)[C@H](CCCNC(=N)N)NC(=O)[C@H](CC(=O)O)NC(=O)[C@H](Cc2c[nH]c3ccccc23)NC(=O)[C@@H](NC(=O)[C@@H](NC(=O)[C@H](CCC(=O)O)NC(=O)[C@H](Cc2c[nH]c3ccccc23)NC(=O)[C@H](C)NC(=O)[C@@H](N)C(C)C)C(C)C)CSSC[C@@H](C(=O)N[C@H](C(=O)N[C@H](C(=O)N[C@@H](CC(=O)O)C(=O)N[C@@H](CO)C(=O)O)[C@@H](C)O)[C@@H](C)O)NC1=O [BP3-4D3.11] (H-VAWEVCWDRHDQGYICTTDS-OH; disulfide 6-16; N-terminus and C-terminus assumed) |  | 1 µM |  |  | 
9 µM | CC(C)C[C@@H]1NC(=O)[C@H](Cc2ccc(O)cc2)NC(=O)[C@H](Cc2c[nH]c3ccccc23)NC(=O)[C@H](CCC(=O)O)NC(=O)[C@H](C)NC(=O)[C@H](C(C)C)NC(=O)[C@@H]2CCCN2C(=O)[C@H](Cc2c[nH]c3ccccc23)NC(=O)[C@@H](NC(=O)[C@@H](N)C(C)C)CSSC[C@@H](C(=O)N[C@@H](CC(N)=O)C(=O)O)NC1=O [BP17] (H-VCWPVAEWYLCN-OH; disulfide 2-11; N-terminus and C-terminus assumed) |  | 5.1 µM |  |  | 
 | CRAGPLQWLCEKYFSTY-nh2 (CRAGPLQWLCEKYFSTY-NH2; disulfide 1-10) [bp1-21B] |  |  |  |  | affinity improvement compared with bp1-16 (IGFBP-1 [9]): ~3 fold

Molecule | IC50 (IGFBP-3 [7]; [10]) | inhibition of ^125I-IGF-I binding to an IGFBP-1 coated plate [2] | IC50 (IGFBP-3 [4]) | inhibition of ^125I-IGF-I binding to an IGFBP-3 plate (IGFBP-3 [5]) | IGF-I Inhibition IC50 (mut)/IC50 (wt) (IGFBP-3 [7]) | other results
CC(C)C[C@@H]1NC(=O)[C@H](Cc2ccc(O)cc2)NC(=O)[C@H](Cc2c[nH]c3ccccc23)NC(=O)[C@H](CCC(=O)O)NC(=O)[C@H](C)NC(=O)[C@H](C(C)C)NC(=O)[C@@H]2CCCN2C(=O)[C@H](Cc2c[nH]c3ccccc23)NC(=O)[C@@H](NC(=O)[C@@H](NC(=O)[C@H](CCC(=O)O)NC(=O)[C@H](CCC(=O)O)NC(=O)[C@@H](N)CO)C(C)C)CSSC[C@@H](C(=O)N[C@@H](CC(N)=O)C(=O)O)NC1=O [BP15] (H-SEEVCWPVAEWYLCN-OH; disulfide 5-14; N-terminus and C-terminus assumed) | 0.75 µM |  | 0.78 µM |  | 0.36 | decrease in ^125I-IGF-I associated with the 150-KD IGF/IGFBP-3/ALS complex [8]: ~42%; increase in the amount of free ^125I-IGF-I [8]: 59%; IC50 believed to result with a 1:1 ratio (KIRA) (IGFBP-3 [1]; IGFBP-3:IGF-1 1:1 ratio, not tested): 30 µM; IC50 (IGFBP-3 [1]; IGFBP-3:IGF-1 at a 3:1 ratio, read-out: IC50 for blocking of IGFBP-3 (activation of the KIRA assay)): 95 µM; IC50 (IGFBP-3 [7]; bp3-01-ox variants by BIAcore competition assay, read-out: IGF-I Inhibition IC50): 0.72 µM
